What was measured:
[1] = biological target: T1, Tyrosine-protein phosphatase non-receptor type 2 (Homo sapiens, UniProt P17706); assay: Inhibitory activity against T cell protein tyrosine phosphatase; type: cell-based
T1 sequence (P17706 whole entry): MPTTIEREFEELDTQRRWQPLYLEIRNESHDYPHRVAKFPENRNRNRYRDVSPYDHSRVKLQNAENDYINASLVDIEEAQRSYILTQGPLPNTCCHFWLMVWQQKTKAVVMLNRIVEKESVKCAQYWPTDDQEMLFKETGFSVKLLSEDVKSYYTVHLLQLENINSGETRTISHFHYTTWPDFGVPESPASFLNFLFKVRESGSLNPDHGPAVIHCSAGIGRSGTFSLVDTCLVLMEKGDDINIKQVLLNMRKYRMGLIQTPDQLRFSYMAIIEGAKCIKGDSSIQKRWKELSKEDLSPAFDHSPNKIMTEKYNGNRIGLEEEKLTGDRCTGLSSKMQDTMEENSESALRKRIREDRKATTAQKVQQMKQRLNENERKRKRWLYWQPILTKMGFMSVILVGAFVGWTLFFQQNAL

[2] = biological target: T2, Tyrosine-protein phosphatase non-receptor type 1 (Homo sapiens, UniProt P18031); assay: Inhibitory activity against protein tyrosine phosphatase 1B (PTP1B) was determined in fluorescein diphosphate (FDP) assay
T2 sequence (P18031 whole entry): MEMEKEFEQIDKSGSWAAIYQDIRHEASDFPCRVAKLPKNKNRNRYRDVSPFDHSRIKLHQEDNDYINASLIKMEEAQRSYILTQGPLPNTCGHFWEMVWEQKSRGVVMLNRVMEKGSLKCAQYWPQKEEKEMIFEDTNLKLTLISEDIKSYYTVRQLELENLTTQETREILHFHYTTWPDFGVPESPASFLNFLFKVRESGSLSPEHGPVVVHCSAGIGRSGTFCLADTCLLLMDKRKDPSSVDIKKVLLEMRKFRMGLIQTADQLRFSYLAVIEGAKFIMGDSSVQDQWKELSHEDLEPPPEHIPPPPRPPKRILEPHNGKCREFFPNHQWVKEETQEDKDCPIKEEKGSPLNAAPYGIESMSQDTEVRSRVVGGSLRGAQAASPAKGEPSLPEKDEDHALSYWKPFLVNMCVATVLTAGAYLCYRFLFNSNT

[3] = biological target: T3, Receptor-type tyrosine-protein phosphatase C (Homo sapiens, UniProt P08575); assay: Inhibitory activity against CD45 protein-tyrosine phosphatase
T3 sequence (P08575 whole entry): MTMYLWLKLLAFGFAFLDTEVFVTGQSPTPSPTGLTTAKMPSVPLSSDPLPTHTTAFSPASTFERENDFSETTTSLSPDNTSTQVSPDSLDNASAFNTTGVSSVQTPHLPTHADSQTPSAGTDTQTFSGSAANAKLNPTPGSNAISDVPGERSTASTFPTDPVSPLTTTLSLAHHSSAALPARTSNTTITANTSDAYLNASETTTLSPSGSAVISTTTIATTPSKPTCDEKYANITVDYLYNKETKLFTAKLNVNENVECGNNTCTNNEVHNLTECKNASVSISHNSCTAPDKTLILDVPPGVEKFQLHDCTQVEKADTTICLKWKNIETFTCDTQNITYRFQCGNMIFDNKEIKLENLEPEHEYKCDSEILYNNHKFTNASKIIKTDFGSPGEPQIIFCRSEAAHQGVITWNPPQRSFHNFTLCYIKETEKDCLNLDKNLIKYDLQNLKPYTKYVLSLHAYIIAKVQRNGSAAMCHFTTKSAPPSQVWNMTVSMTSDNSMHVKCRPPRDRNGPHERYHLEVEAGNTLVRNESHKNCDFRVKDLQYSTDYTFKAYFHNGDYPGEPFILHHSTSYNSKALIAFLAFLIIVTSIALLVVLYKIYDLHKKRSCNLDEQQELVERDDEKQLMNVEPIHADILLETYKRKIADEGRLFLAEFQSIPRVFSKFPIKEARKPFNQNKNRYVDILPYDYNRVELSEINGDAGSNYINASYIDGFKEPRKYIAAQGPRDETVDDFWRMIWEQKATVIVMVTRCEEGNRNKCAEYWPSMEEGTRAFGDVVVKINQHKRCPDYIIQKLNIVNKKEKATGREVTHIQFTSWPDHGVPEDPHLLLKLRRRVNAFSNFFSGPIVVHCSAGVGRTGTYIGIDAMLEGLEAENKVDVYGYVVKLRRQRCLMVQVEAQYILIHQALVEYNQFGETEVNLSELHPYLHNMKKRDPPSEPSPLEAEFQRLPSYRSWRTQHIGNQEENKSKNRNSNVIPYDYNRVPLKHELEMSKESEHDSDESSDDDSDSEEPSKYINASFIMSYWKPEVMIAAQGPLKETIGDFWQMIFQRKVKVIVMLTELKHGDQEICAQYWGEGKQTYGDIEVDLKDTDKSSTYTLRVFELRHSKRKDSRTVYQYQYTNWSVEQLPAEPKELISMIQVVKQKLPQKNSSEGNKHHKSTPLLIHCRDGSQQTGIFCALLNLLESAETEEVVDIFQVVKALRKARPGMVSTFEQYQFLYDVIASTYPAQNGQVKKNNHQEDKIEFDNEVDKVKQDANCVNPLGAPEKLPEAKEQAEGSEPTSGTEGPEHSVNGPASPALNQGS

[4] = biological target: T2, Tyrosine-protein phosphatase non-receptor type 1; assay: Inhibitory activity against Protein tyrosine phosphatase 1B (PTP1B) over-expressed in intact Sf9 cell assay

Compound | IC50 [1] | IC50 [2] | IC50 [3] | IC50 [4]
O=P(O)(O)C(F)(F)c1ccc(CC(Cc2ccc(-c3ccccc3-c3nn[nH]n3)cc2)(c2ccccc2)n2nnc3ccccc32)cc1 (stereo unspecified) | 85 nM | 74 nM | 50000 nM | 370 nM
O=P(O)(O)C(F)(F)c1ccc(CC(c2ccccc2)n2nnc3ccccc32)cc1 (stereo unspecified) | 7260 nM | 8040 nM | > 50000 nM | 
O=P(O)(O)C(F)(F)c1ccc(CC(Cc2ccc(C(F)(F)P(=O)(O)O)cc2)(c2nnn[nH]2)n2nnc3ccccc32)cc1 | 16 nM | 32 nM | 7200 nM | 1200 nM
COC(CC(C)C)c1ccc2cc(-c3ccc(CC(Cc4ccc(C(F)(F)P(=O)(O)O)cc4)(c4ccccc4)n4nnc5ccccc54)cc3)cc(P(=O)(O)O)c2n1 (stereo in doubt; 21d) | 930 nM |  | 32000 nM | 
O=P(O)(O)C(F)(F)c1ccc(CC(Cc2ccc(C(F)(F)P(=O)(O)O)cc2)(c2ccc(F)c(F)c2)n2nnc3ccccc32)cc1 | 8 nM |  | 50000 nM | 
O=P(O)(O)C(F)(F)c1ccc(CC(Cc2ccc(C(F)(F)P(=O)(O)O)cc2)(c2nc3ccccc3s2)n2nnc3ccccc32)cc1 | 20 nM | 18 nM | 11000 nM | 88 nM
COC(=O)c1ccc(C(Cc2ccc(C(F)(F)P(=O)(O)O)cc2)(Cc2ccc(C(F)(F)P(=O)(O)O)cc2)n2nnc3ccccc32)cc1 | 16 nM | 11 nM | 50000 nM | 84 nM
COC(CC(C)C)c1ccc2cc(-c3ccc(CC(Cc4ccc(C(F)(F)P(=O)(O)O)cc4)(c4ccccc4)n4nnc5ccccc54)cc3)cc(P(=O)(O)O)c2n1 (stereo in doubt; 21b) | 41 nM |  | 50000 nM | 
COC(CC(C)C)c1ccc2cc(-c3ccc(CC(Cc4ccc(C(F)(F)P(=O)(O)O)cc4)(c4ccccc4)n4nnc5ccccc54)cc3)cc(P(=O)(O)O)c2n1 (stereo in doubt; 21c) | 1130 nM |  | 50000 nM | 
O=P(O)(O)C(F)(F)c1ccc(CC(Cc2ccc(C(F)(F)P(=O)(O)O)cc2)(c2nc(-c3ccccc3)cs2)n2nnc3ccccc32)cc1 | 18 nM | 19 nM | 50000 nM | 190 nM
COC(CC(C)C)c1ccc2cc(-c3ccc(CC(Cc4ccc(C(F)(F)P(=O)(O)O)cc4)(c4ccccc4)n4nnc5ccccc54)cc3)cc(P(=O)(O)O)c2n1 (stereo in doubt; 21a) |  |  | 50000 nM | 
O=P(O)(O)C(F)(F)c1ccc(CC(Cc2ccc(C(F)(F)P(=O)(O)O)cc2)(c2ccc3ccccc3n2)n2nnc3ccccc32)cc1 | 28 nM | 20 nM | 50000 nM | 62 nM
Cc1ccc2cc(-c3ccc(CC(Cc4ccc(C(F)(F)P(=O)(O)O)cc4)(c4ccccc4)n4nnc5ccccc54)cc3)cc(P(=O)(O)O)c2n1 (stereo unspecified) |  |  | 50000 nM | 220 nM

Now from value to compound:

IC50 [1] | IC50 [2] | IC50 [3] | IC50 [4] | Compound
10 nM |  | 50000 nM | 120 nM | O=P(O)(O)C(F)(F)c1ccc(CC(Cc2ccc(C(F)(F)P(=O)(O)O)cc2)(c2ccccc2)n2nnc3ccccc32)cc1
4 nM | 5 nM | 25000 nM | 160 nM | O=P(O)(O)C(F)(F)c1ccc(CC(Cc2ccc(C(F)(F)P(=O)(O)O)c(Br)c2)(c2ccccc2)n2nnc3ccccc32)cc1 (stereo unspecified)
 |  | 50000 nM |  | O=P(O)(O)c1cccc(-c2ccc(CC(Cc3ccc(C(F)(F)P(=O)(O)O)cc3)(c3ccccc3)n3nnc4ccccc43)cc2)c1 (stereo unspecified)
49 nM | 49 nM | 50000 nM | 460 nM | O=P(O)(O)C(F)(F)c1ccc(CC(C/C=C/c2ccccc2)(c2ccccc2)n2nnc3ccccc32)cc1 (stereo unspecified)
62 nM | 98 nM | 64000 nM | 4070 nM | O=P(O)(O)C(F)(F)c1ccc(CC(Cc2ccc(OCc3ccccc3)cc2)(c2ccccc2)n2nnc3ccccc32)cc1 (stereo unspecified)
82 nM | 69 nM | 50000 nM | 930 nM | NS(=O)(=O)c1ccccc1-c1ccc(CC(Cc2ccc(C(F)(F)P(=O)(O)O)cc2)(c2ccccc2)n2nnc3ccccc32)cc1 (stereo unspecified)
290 nM | 240 nM | 50000 nM | 1700 nM | O=C(OCc1ccccc1)C(Cc1ccc(C(F)(F)P(=O)(O)O)cc1)(c1ccccc1)n1nnc2ccccc21 (stereo unspecified)
10 nM | 16 nM | 50000 nM | 120 nM | O=P(O)(O)C(F)(F)c1ccc(/C=C/CC(Cc2ccc(C(F)(F)P(=O)(O)O)cc2)(c2ccccc2)n2nnc3ccccc32)cc1 (stereo unspecified)
 |  | 69000 nM | 1600 nM | O=P(O)(O)C(F)(F)c1ccc(CC(Cc2ccc(-c3ccccc3)cc2)(c2ccccc2)n2nnc3ccccc32)cc1 (stereo unspecified)
92 nM | 89 nM | 17000 nM | 1600 nM | O=P(O)(O)C(F)(F)c1ccc(CC(Cc2ccc(Br)cc2)(c2ccccc2)n2nnc3ccccc32)cc1 (stereo unspecified)
72 nM | 46 nM | 30000 nM | 650 nM | O=P(O)(O)C(F)(F)c1ccc(CC(CCCc2ccccc2)(c2ccccc2)n2nnc3ccccc32)cc1 (stereo unspecified)

— ChEMBL document CHEMBL1146670, “Structure based design of a series of potent and selective non peptidic PTP-1B inhibitors” (Bioorg Med Chem Lett, 2004)
